Our source for the IC90 values is US20220396565A1 (Hoffmann-La Roche Inc., priority 2020, published 2022).

In general, IC90 refers to the point of the concentration-response curve where the effect stands at 90%.

Structures can show the parent of a compound that is named as a salt.

The first experiment relates to Acinetobacter baumannii ATCC17961. Put plainly: Antimicrobial susceptibility testing: 90% growth inhibitory concentration (IC90) determination, Iso-Sensitest broth. Format: cell-based. Particulars: Acinetobacter baumannii, ATCC17961, 90% growth inhibitory concentration, Acinetobacter baumannii ATCC17961, Iso-Sensitest broth; read-out: ATCC 17961 IC90. In a few lines: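 Twofold serial dilutions (e.g. 10 to 0.02 μM final) were tested in Iso-Sensitest broth against ~5×10^(5) CFU/ml at 35±2 °C. OD600 was read every 20 min over 16 h. IC90 was derived from growth inhibition during the logarithmic phase.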
As to `COc1ccc(-c2cnc(C(=O)Nc3ccc(C(=O)N4CCC(NC(=O)CN(C)C)CC4)c(Cl)c3)n2C)c(F)c1F` [Example 195, N-[3-chloro-4-[4-[[2-(dimethylamino)acetyl]amino]piperidine-1-carbonyl]phenyl]-5-(2,3-difluoro-4-methoxy-phenyl)-1-methyl-imidazole-2-carboxamide], the IC90 came to 90 nM.

On to `Cn1c(-c2ccc(OCC#N)c(F)c2F)cnc1C(=O)Nc1ccc(C(=O)N2CCN(C(=O)[C@@H]3C[C@H](N)CN3)CC2)c(Cl)c1` [Example 209, N-(4-(4-((2S,4S)-4-aminopyrrolidine-2-carbonyl)piperazine-1-carbonyl)-3-chlorophenyl)-5-(4-(cyanomethoxy)-2,3-difluorophenyl)-1-methyl 1H-imidazole-2-carboxamide], for which the IC90 was found to be 80 nM.

On to `Cn1c(-c2ccc(OCC#N)c(F)c2F)cnc1C(=O)Nc1ccc(C(=O)N2CCN(C(=O)[C@@H]3NCC[C@@H]3O)CC2)c(Cl)c1` [Example 210, N-(3-chloro-4-(4-((2R,3S)-3-hydroxypyrrolidine-2-carbonyl)piperazine-1-carbonyl)phenyl)-5-(4-(cyanomethoxy)-2,3-difluorophenyl)-1-methyl-1H-imidazole-2-carboxamide formate], for which the IC90 was determined as 60 nM.

Turning to `Cn1c(-c2ccc(OCC#N)c(F)c2F)cnc1C(=O)Nc1ccc(C(=O)N2CCN(C(=O)CN3CC(C(=O)O)C3)CC2)c(Cl)c1` [Example 212, 1-(2-(4-(2-chloro-4-(5-(4-(cyanomethoxy)-2,3-difluorophenyl)-1-methyl-1H-imidazole-2-carboxamido)benzoyl)piperazin-1-yl)-2-oxoethyl)azetidine-3-carboxylic acid 2,2,2-trifluoroacetate], the IC90 stood at 850 nM.

On to `Cn1c(-c2ccc(OCC#N)c(F)c2F)cnc1C(=O)Nc1ccc(C(=O)N2CCN(CCNC(=O)[C@H]3CCCN3)CC2)c(Cl)c1` [Example 213, (R)-N-(3-chloro-4-(4-(2-(pyrrolidine-2-carboxamido)ethyl)piperazine-1-carbonyl)phenyl)-5-(4-(cyanomethoxy)-2,3-difluorophenyl)-1-methyl-1H-imidazole-2-carboxamide 2,2,2-trifluoroacetate], for which the IC90 was determined as 100 nM.

Turning to `Cn1c(-c2ccc(OCC#N)c(F)c2F)cnc1C(=O)Nc1ccc(C(=O)N2CCN(C(=O)C3CNCC(O)C3)CC2)c(Cl)c1` (centres unmarked) [Example 214, N-(3-chloro-4-(4-(5-hydroxypiperidine-3-carbonyl)piperazine-1-carbonyl)phenyl)-5-(4-(cyanomethoxy)-2,3-difluorophenyl)-1-methyl-1H-imidazole-2-carboxamide 2,2,2-trifluoroacetate], the IC90 is 70 nM.

In the case of `Cn1c(-c2ccc(OCC#N)c(F)c2F)cnc1C(=O)Nc1ccc(C(=O)N2CCN(C(=O)CN3CC[C@@H](C(=O)O)C3)CC2)c(Cl)c1` [Example 215, (R)-1-(2-(4-(2-chloro-4-(5-(4-(cyanomethoxy)-2,3-difluorophenyl)-1-methyl-1H-imidazole-2-carboxamido)benzoyl)piperazin-1-yl)-2-oxoethyl)pyrrolidine-3-carboxylic acid 2,2,2-trifluoroacetic acid], the IC90 was 800 nM.

With `COc1ccc(-c2cnc(C(=O)Nc3ccc(C(=O)N4CCN(S(=O)(=O)C5CCNCC5)CC4)c(Cl)c3)n2C)c(F)c1F` [Example 216, N-(3-chloro-4-(4-(piperidin-4-ylsulfonyl)piperazine-1-carbonyl)phenyl)-5-(2,3-difluoro-4-methoxyphenyl)-1-methyl-1H-imidazole-2-carboxamide formate], the IC90 is 120 nM.

As for `COc1ccc(-c2cnc(C(=O)Nc3ccc(C(=O)N4CC(NC(=O)CN)C4)c(Cl)c3)n2C)c(F)c1F` [Example 217, N-(4-(3-(2-aminoacetamido)azetidine-1-carbonyl)-3-chlorophenyl)-5-(2,3-difluoro-4-methoxyphenyl)-1-methyl-1H-imidazole-2-carboxamide formate], the 90% effect concentration (IC90) was 90 nM.

As to `COc1ccc(-c2cnc(C(=O)Nc3ccc(C(=O)N4CC(NC(=O)C5CC(CN)C5)C4)c(Cl)c3)n2C)c(F)c1F` (centres unmarked) [Example 218, N-(4-(3-(3-(aminomethyl)cyclobutane-1-carboxamido)azetidine-1-carbonyl)-3-chlorophenyl)-5-(2,3-difluoro-4-methoxyphenyl)-1-methyl-1H-imidazole-2-carboxamide 2,2,2-trifluoroacetate], the IC90 worked out at 90 nM.

With `COc1ccc(-c2cnc(C(=O)Nc3ccc(C(=O)N4CCN(C(=O)C5CC(O)C5)CC4)c(Cl)c3)n2C)c(F)c1F` (centres unmarked) [Example 219, N-(3-chloro-4-(4-(3-hydroxycyclobutane-1-carbonyl)piperazine-1-carbonyl)phenyl)-5-(2,3-difluoro-4-methoxyphenyl)-1-methyl-1H-imidazole-2-carboxamide], the IC90 is 110 nM.

As for `CN(C)CC(=O)N1CCN(C(=O)c2ccc(NC(=O)c3ncc(-c4ccc(OCF)c(F)c4F)n3C)cc2Cl)CC1` [Example 220, N-(3-chloro-4-(4-(dimethylglycyl)piperazine-1-carbonyl)phenyl)-5-(2,3-difluoro-4-(fluoromethoxy)phenyl)-1-methyl-1H-imidazole-2-carboxamide formate], the IC90 was determined as 40 nM.

In the case of `Cn1c(-c2ccc(OCF)c(F)c2F)cnc1C(=O)Nc1ccc(C(=O)N2CCN(C(=O)[C@@H]3C[C@@H](O)CN3)CC2)c(Cl)c1` [Example 221, N-(3-chloro-4-(4-((2S,4R)-4-hydroxypyrrolidine-2-carbonyl)piperazine-1-carbonyl)phenyl)-5-(2,3-difluoro-4-(fluoromethoxy)phenyl)-1-methyl-1H-imidazole-2-carboxamide formate], the IC90 amounted to 50 nM.

On to `CN(C)CC(=O)N1CCN(C(=O)c2ccc(NC(=O)c3ncc(-c4ccc(OCF)cc4F)n3C)cc2Cl)CC1` [Example 222, N-(3-chloro-4-(4-(dimethylglycyl)piperazine-1-carbonyl)phenyl)-5-(2-fluoro-4-(fluoromethoxy)phenyl)-1-methyl-1H-imidazole-2-carboxamide], for which the IC90 is 90 nM.

Turning to `Cn1c(-c2ccc(OC(F)F)c(F)c2F)cnc1C(=O)Nc1ccc(C(=O)N2CCN(C(=O)C[C@@H]3CCCN3)CC2)c(Cl)c1` [Example 224, (S)-N-(3-chloro-4-(4-(2-(pyrrolidin-2-yl)acetyl)piperazine-1-carbonyl)phenyl)-5-(4-(difluoromethoxy)-2,3-difluorophenyl)-1-methyl-1H-imidazole-2-carboxamide formate], the IC90 was 30 nM.

Regarding `Cc1cc(NC(=O)c2ncc(-c3ccc(OCC#N)c(F)c3F)n2C)ccc1C(=O)N1CCN(C(=O)[C@@H]2C[C@](C)(O)CN2)CC1` [Example 225, 5-[4-(cyanomethoxy)-2,3-difluoro-phenyl]-N-[4-[4-[(2S,4S)-4-hydroxy-4-methyl-pyrrolidine-2-carbonyl]piperazine-1-carbonyl]-3-methyl-phenyl]-1-methyl-imidazole-2-carboxamide formate], the IC90 was found to be 160 nM.

`CC[C@@]1(O)CN[C@H](C(=O)N2CCN(C(=O)c3ccc(NC(=O)c4ncc(-c5ccc(OCC#N)c(F)c5F)n4C)cc3C)CC2)C1` [Example 226, 5-[4-(cyanomethoxy)-2,3-difluoro-phenyl]-N-[4-[4-[(2S,4S)-4-ethyl-4-hydroxy-pyrrolidine-2-carbonyl]piperazine-1-carbonyl]-3-methyl-phenyl]-1-methyl-imidazole-2-carboxamide formate]: the IC90 is 130 nM.

`Cn1c(-c2ccc(OCC#N)c(F)c2F)cnc1C(=O)Nc1ccc(C(=O)N2CCN(C(=O)[C@@H]3CCNC[C@H]3O)CC2)c(Cl)c1` [Example 227, N-(3-chloro-4-(4-((3S,4R)-3-hydroxypiperidine-4-carbonyl)piperazine-1-carbonyl)phenyl)-5-(4-(cyanomethoxy)-2,3-difluorophenyl)-1-methyl 1H-imidazole-2-carboxamide (S)-2-hydroxypropanoate]: the IC90 was 90 nM.

As to `COc1ccc(-c2cnc(C(=O)Nc3ccc(C(=O)N4CCN(C(=O)[C@@H]5CCNC[C@@H]5O)CC4)c(Cl)c3)n2C)c(F)c1F` [Example 228, N-[3-chloro-4-[4-[(3R,4R)-3-hydroxypiperidine-4-carbonyl]piperazine-1-carbonyl]phenyl]-5-(2,3-difluoro-4-methoxy-phenyl)-1-methyl-imidazole-2-carboxamide], the IC90 amounted to 180 nM.

For the molecule `COc1ccc(-c2cnc(C(=O)Nc3ccc(C(=O)N4CCN(C(=O)[C@H]5CCNC[C@H]5O)CC4)c(Cl)c3)n2C)c(F)c1F` [Example 229, N-[3-chloro-4-[4-[(3S,4S)-3-hydroxypiperidine-4-carbonyl]piperazine-1-carbonyl]phenyl]-5-(2,3-difluoro-4-methoxy-phenyl)-1-methyl-imidazole-2-carboxamide], the IC90 stood at 90 nM.

Staying with this experiment, now noted: Acinetobacter baumannii, ATCC17961, read-out: ATCC 17961 IC90.
As for `Cn1c(-c2ccc(OCC#N)c(F)c2F)cnc1C(=O)Nc1ccc(C(=O)N2CCN(C(=O)[C@H]3CCCNC3)CC2)c(Cl)c1` [Example 208, (S)-N-(3-chloro-4-(4-(piperidine-3-carbonyl)piperazine-1-carbonyl)phenyl)-5-(4-(cyanomethoxy)-2,3-difluorophenyl)-1-methyl 1H-imidazole-2-carboxamide 2,2,2-trifluoroacetate], the concentration for an effect of 90% (IC90) is 50 nM.

As to `Cn1c(-c2ccc(OCC#N)c(F)c2F)cnc1C(=O)Nc1ccc(C(=O)N2CCN(C(=O)[C@@H]3CCCCN3)CC2)c(Cl)c1` [Example 211, (S)-N-(3-chloro-4-(4-(piperidine-2-carbonyl)piperazine-1-carbonyl)phenyl)-5-(4-(cyanomethoxy)-2,3-difluorophenyl)-1-methyl 1H-imidazole-2-carboxamide formate], the IC90 was determined as 50 nM.

Take `Cn1c(-c2ccc(OC(F)F)c(F)c2F)cnc1C(=O)Nc1ccc(C(=O)N2CCN(C(=O)CC3(O)CCNCC3)CC2)c(Cl)c1` [Example 223, N-(3-chloro-4-(4-(2-(4-hydroxypiperidin-4-yl)acetyl)piperazine-1-carbonyl)phenyl)-5-(4-(difluoromethoxy)-2,3-difluorophenyl)-1-methyl 1H-imidazole-2-carboxamide formate]: the IC90 worked out at 50 nM.
